In patent publication US11926619B2, “Certain pladienolide compounds and methods of use” (EISAI R&D MANAGEMENT CO., LTD., priority 2018, dated 2024):
pIC50: −log10 of the molar value.

What was measured:
[1] = from C=CC[C@@](C)(CCCCC(=O)O[C@H](/C(C)=C/I)[C@@H](C)C=C)O[Si](CC)(CC)CC; rcm bond; Hoveyda-Grubbs catalyst; toluene; 4.0 mM; 50.0 °C; 2.0 h
[2] = in vivo; cited from earlier work
[3] = tested on: WiDr-R cells (colon cancer cells; chemically-induced SF3B1 R1074H mutant); conditions: R1074H mutation; cited from earlier work
[4] = tested on: WiDr cells (colon cancer cells; wildtype SF3B1); test: Cell viability assay (CellTiter-Glo, 72 hr), WiDr cells; type: cell-based; conditions: Homo sapiens; WiDr cells (wildtype SF3B1); read-out: WiDr GI50
Procedure, shortened: (§1)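 Cells at 2000/well were exposed to 9 compound concentrations (0.1% DMSO) in duplicate or triplicate for 72 hr at 37 °C. ATP was read by CellTiter-Glo against a time-zero plate and DMSO control growth. Percent growth/viability was plotted against concentration to give Emax; negative values indicate lethality.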

[5] = tested on: WiDr-R cells (colon cancer cells; chemically-induced SF3B1 R1074H mutant); test: Cell viability assay (CellTiter-Glo, 72 hr), resistant WiDr-R cells (counter-screen); type: cell-based; conditions: WiDr-R cells (SF3B1 R1074H mutation, resistant); read-out: WiDr-R GI50
Procedure, shortened: as §1

[6] = tested on: Panc 05.04 cells (pancreatic cancer cells; Q699H and K700E mutations in SF3B1); test: Cell viability assay (CellTiter-Glo, 72 hr), Panc 05.04 cells; type: cell-based; conditions: Panc 05.04 cells (mutant SF3B1); for Emax: maximum achievable response in tested dose range, negative value = cellular lethality, read-out: Panc 05.04 (mt SF3B1 cells) Emax (%); for GI50: read-out: Panc 05.04 (mt SF3B1 cells), GI50
Procedure, shortened: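 Viability was read as ATP content (CellTiter-Glo) after 72 hr compound exposure of Panc 05.04 cells at 37 °C, nine concentrations, 0.1% DMSO. Percentage growth was referenced to time-zero and vehicle wells and plotted against concentration to obtain Emax; negative Emax denotes cell killing.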

SF3b complexes = molecular target: T1, SF3b complexes (Homo sapiens, UniProt O75533+Q7RTV0); test: Scintillation proximity assay (SPA) with [3H]-labelled pladienolide probe; type: binding; conditions: wt SF3B1, read-out: SPA (wt SF3B1 cells) IC50
T1 construct: endogenous in cells
Procedure, shortened: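 SF3b complexes immunoprecipitated from nuclear extracts with anti-SF3B1 antibody on anti-mouse PVT SPA beads. Beads pre-incubated 30 min with varying PB or PB-OH, then 2.5 nM [3H]-PB added for 30 min; scintillation signal read and fit by non-linear regression.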

Row | Molecule | ring closure, yield of all isomers [1] [%] | plasma half-life [2] | resistance of WiDr-R cells in terms of growth inhibition [3] | GI50 [4] [µM] | GI50 [5] [µM] | Emax [6] [%] | GI50 [6] [µM] | pIC50 (SF3b complexes)
1 | CC[Si](CC)(CC)O[C@@]1(C)CC=C[C@H](C)[C@@H](/C(C)=C/I)OC(=O)CCCC1 | 53 | – | – | – | – | – | – | –
2 | tremelimumab | – | approximately 22 days | – | – | – | – | – | –
3 | CCC(O)C(C)C1OC1CC(C)(O)/C=C/C=C(\C)C1OC(=O)CC(O)CCC(C)(O)C(OC(=O)N2CCN(C3CCCCCC3)CC2)/C=C/C1C (stereo not drawn) [Compound E7107, (8E,12E,14E)-7-((4-Cycoheptylpiperazin-1-yl)carbonyl)oxy-3,6,16,21-tetrahydroxy-6,10,12,16,20-pentamethyl-18,19-epoxytricosa-8,12,14-trien-11-olide] | – | – | resistant | – | – | – | – | –
4 | CC[C@H](O)[C@@H](C)[C@H]1O[C@@H]1C[C@@](C)(O)/C=C/C=C(\C)[C@H]1OC(=O)C[C@H](O)CC[C@H](C)[C@@H](OC(C)=O)/C=C/[C@@H]1C | – | – | – | 0.00214 | 0.822 | -65.3 | 0.00488 | 8.28
5 | C/C(=C\C=C\[C@H](C)c1ccccn1)[C@H]1OC(=O)C[C@H](O)CC[C@@](C)(O)[C@@H](OC(=O)N2CCC(N3CCCCCC3)CC2)/C=C/[C@@H]1C | – | – | – | 0.00718 | > 1 | -93.8 | 0.0136 | 8.63
6 | C/C(=C\C=C\[C@@H](C)COC(=O)N1CC=CC1)[C@H]1OC(=O)C[C@H](O)CC[C@@](C)(O)[C@@H](OC(=O)N2CCN(C3CCCCCC3)CC2)/C=C/[C@@H]1C | – | – | – | 0.0222 | > 1 | -89.8 | 0.00368 | 8.43
7 | CCCNC(=O)OC[C@H](C)/C=C/C=C(\C)[C@H]1OC(=O)C[C@H](O)CC[C@@](C)(O)[C@@H](OC(C)=O)/C=C/[C@@H]1C | – | – | – | 1.94 | > 10 | 40.5 | 4.59 | 6.33
8 | C/C(=C\C=C\[C@@H](C)c1ccccn1)[C@H]1OC(=O)C[C@H](O)CC[C@H](C)[C@@H](OC(=O)N2CCN(C3CCCCCC3)CC2)/C=C/[C@@H]1C | – | – | – | 0.0332 | 2.43 | -96.3 | 0.044 | 7.98
9 | C/C(=C\C=C\[C@@H](C)COC(=O)N1[C@H](C)CC[C@H]1C)[C@H]1OC(=O)C[C@H](O)CC[C@@](C)(O)[C@@H](OC(=O)N2CCN(C)CC2)/C=C/[C@@H]1C | – | – | – | 0.00103 | > 1 | -68.1 | 0.00112 | 8.56
